According to PubChem BioAssay AID2060905 (Molecular Pharmacology Branch, DTP, NCI, 2025):

Test system: 282377-053-R-J1-PDC complex spheroid viability
Experiment: Anticancer human tumor 282377-053-R-J1-PDC patient-derived colon adenocarcinoma cell line growth inhibition [RAS]
Conditions: for IC50: curve of first compound; for viability, T/C: stronger effect = lower value
Summary of the method: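 Agents were tested in combination matrices in half-log decrements from a top concentration at or near clinical Cmax (10 microM if undetermined). Targets were multi-cell spheroids of tumour lines plus HUVEC and MSC stromal cells.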

[1] = second compound 0.00316 µM, first compound 0.0316 µM
[2] = second compound 0.00316 µM, first compound 0.1 µM
[3] = second compound 0.00316 µM, first compound 0.316 µM
[4] = second compound 0.00316 µM, first compound 1 µM
[5] = second compound 0.00316 µM, first compound 3.16 µM
[6] = second compound 0.00316 µM, first compound 10 µM
[7] = second compound 0.01 µM, first compound 0.0316 µM
[8] = second compound 0.01 µM, first compound 0.1 µM
[9] = second compound 0.01 µM, first compound 0.316 µM
[10] = second compound 0.01 µM, first compound 1 µM
[11] = second compound 0.01 µM, first compound 3.16 µM
[12] = second compound 0.01 µM, first compound 10 µM
[13] = second compound 0.0316 µM, first compound 0.0316 µM
[14] = second compound 0.0316 µM, first compound 0.1 µM
[15] = second compound 0.0316 µM, first compound 0.316 µM
[16] = second compound 0.0316 µM, first compound 1 µM
[17] = second compound 0.0316 µM, first compound 3.16 µM
[18] = second compound 0.0316 µM, first compound 10 µM
[19] = second compound 0.1 µM, first compound 0.0316 µM
[20] = second compound 0.1 µM, first compound 0.1 µM
[21] = second compound 0.1 µM, first compound 0.316 µM
[22] = second compound 0.1 µM, first compound 1 µM
[23] = second compound 0.1 µM, first compound 3.16 µM
[24] = second compound 0.1 µM, first compound 10 µM
[25] = second compound 0.316 µM, first compound 0.0316 µM
[26] = second compound 0.316 µM, first compound 0.1 µM
[27] = second compound 0.316 µM, first compound 0.316 µM
[28] = second compound 0.316 µM, first compound 1 µM
[29] = second compound 0.316 µM, first compound 3.16 µM
[30] = second compound 0.316 µM, first compound 10 µM
[31] = second compound 1 µM, first compound 0.0316 µM
[32] = second compound 1 µM, first compound 0.1 µM
[33] = second compound 1 µM, first compound 0.316 µM
[34] = second compound 1 µM, first compound 1 µM
[35] = second compound 1 µM, first compound 3.16 µM
[36] = second compound 1 µM, first compound 10 µM
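Also: spheroids exposed to agents for seven days before readout.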
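For viability, T/C in this document: luminescence viability as percent of DMSO vehicle control wells.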

SMILES: Cc1nc(N2CCC3(CC2)COC(C)C3N)c(CO)nc1Sc1ccnc(N)c1Cl (centres undefined) + C=CC(=O)N1CCN(c2nc(OCC3CCCN3C)nc3c(F)c(-c4nc(N)cc(C)c4C(F)(F)F)c(Cl)cc23)C(C)C1
- IC50 (second compound 0.00316 µM): > 10 µM
- IC50 (second compound 0.01 µM): > 10 µM
- IC50 (second compound 0.0316 µM): > 10 µM
- IC50 (second compound 0.1 µM): > 10 µM
- IC50 (second compound 0.316 µM): > 10 µM
- IC50 (second compound 1 µM): > 10 µM
- viability, T/C [1]: 111%
- viability, T/C [2]: 101%
- viability, T/C [3]: 118%
- viability, T/C [4]: 103%
- viability, T/C [5]: 108%
- viability, T/C [6]: 116%
- viability, T/C [7]: 100%
- viability, T/C [8]: 122%
- viability, T/C [9]: 103%
- viability, T/C [10]: 109%
- viability, T/C [11]: 92.5%
- viability, T/C [12]: 127%
- viability, T/C [13]: 93.6%
- viability, T/C [14]: 98.3%
- viability, T/C [15]: 109%
- viability, T/C [16]: 82.8%
- viability, T/C [17]: 76.3%
- viability, T/C [18]: 124%
- viability, T/C [19]: 89.5%
- viability, T/C [20]: 92.4%
- viability, T/C [21]: 110%
- viability, T/C [22]: 112%
- viability, T/C [23]: 105%
- viability, T/C [24]: 110%
- viability, T/C [25]: 103%
- viability, T/C [26]: 96.6%
- viability, T/C [27]: 85.5%
- viability, T/C [28]: 101%
- viability, T/C [29]: 100%
- viability, T/C [30]: 108%
- viability, T/C [31]: 106%
- viability, T/C [32]: 113%
- viability, T/C [33]: 118%
- viability, T/C [34]: 86.2%
- viability, T/C [35]: 110%
- viability, T/C [36]: 101%

SMILES: NC1c2ccccc2OC12CCN(c1cnc3c(N4CCCc5ncccc54)n[nH]c3n1)CC2 (centres undefined) + C=CC(=O)N1CCN(c2nc(OCC3CCCN3C)nc3c(F)c(-c4nc(N)cc(C)c4C(F)(F)F)c(Cl)cc23)C(C)C1
- IC50 (second compound 0.00316 µM): > 10 µM
- IC50 (second compound 0.01 µM): > 10 µM
- IC50 (second compound 0.0316 µM): > 10 µM
- IC50 (second compound 0.1 µM): > 10 µM
- IC50 (second compound 0.316 µM): > 10 µM
- IC50 (second compound 1 µM): > 10 µM
- viability, T/C [1]: 114%
- viability, T/C [2]: 104%
- viability, T/C [3]: 102%
- viability, T/C [4]: 95%
- viability, T/C [5]: 105%
- viability, T/C [6]: 79%
- viability, T/C [7]: 89.9%
- viability, T/C [8]: 112%
- viability, T/C [9]: 99.1%
- viability, T/C [10]: 118%
- viability, T/C [11]: 93.8%
- viability, T/C [12]: 86.5%
- viability, T/C [13]: 106%
- viability, T/C [14]: 105%
- viability, T/C [15]: 92.9%
- viability, T/C [16]: 92.2%
- viability, T/C [17]: 90.3%
- viability, T/C [18]: 83.5%
- viability, T/C [19]: 82.1%
- viability, T/C [20]: 87.8%
- viability, T/C [21]: 84.1%
- viability, T/C [22]: 108%
- viability, T/C [23]: 122%
- viability, T/C [24]: 84.2%
- viability, T/C [25]: 88%
- viability, T/C [26]: 98.6%
- viability, T/C [27]: 95.8%
- viability, T/C [28]: 96.5%
- viability, T/C [29]: 113%
- viability, T/C [30]: 91.1%
- viability, T/C [31]: 97.5%
- viability, T/C [32]: 106%
- viability, T/C [33]: 103%
- viability, T/C [34]: 104%
- viability, T/C [35]: 104%
- viability, T/C [36]: 86.6%
